{"source": "patent US11180767B2", "about": "“Protease deficient filamentous fungal cells and methods of use thereof” (GLYKOS FINLAND OY, priority 2012, dated 2021)", "system": "M369 human growth hormone strain", "experiment": "hGH production in 24 well cultures with inhibitors and supplements", "format": "cell-based, Trichoderma reesei", "conditions": "24 well culture, pH 4.5, day 4 immunoblot", "protocol": "To evaluate what inhibitors would best stabilize production of hGH, 24 well cultures of these strains were performed. The M369 human growth hormone strain (Δpep1Δtsp1Δslp1Δgap1Δgap2) was grown along with single components or with combinations of the following: trypsin and subtilisin inhibitor SBTI, the acidic protease inhibitor peptide SIP, the acidic protease inhibitor peptide LIP, the aspartic protease inhibitor pepstatin A free peptide, pepstatin A immobilized to agarose beads, the trypsin and subtilisin inhibitor BBI from lima bean, the […] chymostatin, and BSA. Three independent wells were chosen for control wells where no inhibitors or supplements were added. These two strains were grown in 3 ml of TrMM with diammonium citrate without ammonium sulfate, 100 mM PIPPS, 20 g/L spent grain extract, 40 g/L lactose adjusted to pH 4.5. The 24 well plates were shaken at 800 rpm, 85% humidity, and 28° C. The cultures were grown for 6 days and covered with an air permeable membrane.\nInhibitors were added first on day 1 and then daily beginning on day 3. 100 μl samples were taken from the culture wells beginning on day 3. The mycelium was spun down for 5 minutes at 13 k and the supernatant collected. From the culture supernatant 12 μl was loaded in a 4-20% SDS PAGE gel and immunoblotting made on nitrocellulose with mouse anti-hGH antibody (2 μg/ml) and goat anti-mouse IgG AP conjugated secondary antibody diluted 1:10,000 in TBST.\nEstimating the expression levels relative to the 200 ng control sample, the control wells produced between 3-6 mg/L of hGH, the BSA (0.25%)/SIP (50 μM)/8BTI (0.2 mg/ml) treatment produced 24.5 mg/L, the SIP (50 μM)/8BTI (0.2 mg/ml) treatment produced 26.6 mg/L, and the pepstatin A beads/SBTI (0.2 mg/ml) addition yielded 24.5 mg/L of hGH. Therefore, using a combination of inhibitors and additives worked best increasing the production levels by at least 4-fold. The critical parameter was to include an aspartic protease inhibitor into the mix.", "note": "Non-standard residues stand in square brackets, D forms with d. Residues, ends and D or L forms follow the SMILES beside them. *: point of attachment. Sta = CC(C)C[C@H](N)[C@@H](O)CC(=O)O; Isovaleryl = CC(C)CC(=O)*"}
{"smiles": "CC(C)CC(=O)N[C@H](C(=O)N[C@H](C(=O)N[C@@H](CC(C)C)[C@@H](O)CC(=O)N[C@@H](C)C(=O)N[C@@H](CC(C)C)[C@@H](O)CC(=O)O)C(C)C)C(C)C", "note": "[pepstatin A] (Isovaleryl-VV[Sta]A[Sta]-OH)", "values": [{"measurement": "effect on hGH production", "value": "negative effect on the growth hormone production"}]}
